Experimental data taken from the supplement of paper PMC8671470.

Experiments:
Assay in all cases: cell viability (% survival relative to DMSO control); higher = less cytotoxic
Settings in all cases: 72 h
[1] = system: myeloid leukemia patient primary cells Pat.15
Outline: (§1)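 Thawed mononuclear cells from AML or CML patients were purified on Ficoll and cultured for 72 h in RPMI 1640 with 10% FBS, at 10,000 cells/well, on 384-well plates carrying 70 pre-printed compounds at 1–10,000 nM in five tenfold steps, in duplicate. Viability came from CellTiter-Glo, normalised against DMSO and against 10 μM proteasome inhibitor. Any area under the curve given was derived from log-logistic curve fits in the drc and PharmacoGx R packages, and these fits had four parameters.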

[2] = system: myeloid leukemia patient primary cells Pat.5
Outline: as §1

[3] = system: myeloid leukemia patient primary cells Pat.3
Outline: as §1

Structure (SMILES)	cell viability ([1]; 1 nM)	cell viability ([1]; 10 nM)	cell viability ([1]; 100 nM)	cell viability ([1]; 1000 nM)	cell viability ([1]; 10000 nM)	cell viability ([2]; 1 nM)	cell viability ([2]; 10 nM)	cell viability ([2]; 100 nM)	cell viability ([2]; 1000 nM)	cell viability ([2]; 10000 nM)	cell viability ([3]; 1 nM)	cell viability ([3]; 10 nM)	cell viability ([3]; 100 nM)	cell viability ([3]; 1000 nM)	cell viability ([3]; 10000 nM)
Sc1ncnc2nc[nH]c12 [6-mercaptopurine]	99.2%	> 100%	98.5%	94.3%	98.3%	8.91%	64.1%	35.4%	17.2%	1.33%	94.8%	97.6%	44.2%	35.1%	16.3%
Cc1noc2c1-c1ccccc1C(c1ccc(Cl)cc1)=N[C@H]2CC(N)=O [CPI-0610]	95.1%	94.6%	76.1%	3.36%	1.08%	81.3%	12.4%	82.4%	7.88%	10.1%	> 100%	79.3%	68.4%	22.7%	15.6%
Nc1ccn([C@@H]2O[C@H](CO)[C@@H](O)[C@@H]2O)c(=O)n1 [Cytarabine]	94.5%	86.4%	99.6%	81%	32.8%	84.9%	1.18%	24.7%	1.18%	2.01%	> 100%	39.5%	46.5%	11.6%	5%
CCN(CC)CCN(Cc1ccc(-c2ccc(C(F)(F)F)cc2)cc1)C(=O)Cn1c(SCc2ccc(F)cc2)nc(=O)c2c1CCC2 [Darapladib]	82.5%	> 100%	85.8%	96%	0.433%	12.5%	23.9%	5.8%	< 0%	8.02%	81.4%	90.8%	70.5%	54.4%	< 0%
CC12CCC(O)CC1CCC1C2CCC2(C)C(C3=CC(=O)OC3)CCC12O (stereo not given) [Digitoxigenin]	> 100%	92.9%	97.5%	8.87%	2.72%	56.2%	38.7%	33.1%	0.265%	4.43%	> 100%	90%	16.6%	0.964%	1.87%
